Results taken from patent publication US12467035B2, “Method of differentiating mesenchymal stem cells into cardiomyocytes” (CHONNAM NATIONAL UNIVERSITY HOSPITAL, priority 2016, dated 2025).

Experiments:
mesenchymal stem cells [1] = assay: Immunocytochemistry of cardiomyocyte-specific marker proteins (GATA4, cTnI); format: cell-based, human; conditions: glucose deprivation, 4 hours, immunofluorescent staining
Method: To confirm the expression of cardiomyocyte-specific marker proteins, immunocytochemistry was performed. First, mesenchymal stem cells were inoculated into a 12-well plate filled with a high glucose DMEM medium and cultured for 1 day. Then, the mesenchymal stem cells were incubated into a glucose-free medium (Veh), a glucose-free medium containing apicidin (AC), or a glucose-free medium containing apicidin and lactic acid (AC/Lac) for 4 hours. After incubation, the cell culture medium was removed from each sample, the mesenchymal stem cells were washed once with PBS, and subsequently the cells were fixed with 3.7% formaldehyde for 15 minutes, followed by treatment with 0.1% Triton X-100 for cell permeabilization. Normal goat serum was added and incubated for 1 hour to reduce background noise. Primary antibodies such as anti-GATA4 antibodies, anti-cTnI antibodies or anti-alpha-sarcomeric actin (a-SA) antibodies were added to the samples, followed by incubation at 4° C. overnight. Then, secondary antibodies labeled with a fluorescent dye (Alexa 488 or Alexa 594) were added, followed by incubation for 1 hour. Nuclei were stained with 4′,6-diamidino-2-phenylindole (DAPI), a fluorescent dye. The samples were mounted on slide glass for observation using a fluorescence microscope. […]

mesenchymal stem cells [2] = assay: qRT-PCR of cardiomyocyte-specific marker genes (GATA4, Nkx2.5, cTnI); format: cell-based, human; conditions: glucose deprivation
Method: To determine the degree of differentiation of mesenchymal stem cells into cardiomyocytes by addition of apicidin and lactic acid under glucose deprivation conditions, the expression levels of cardiomyocyte-specific genes were quantitatively analyzed in the cells. More specifically, as in the method of Example 1-2, mesenchymal stem cells were incubated in each of the media for 4 or 20 hours. After incubation, the medium was removed from each sample, followed by washing once with PBS. Then, the mesenchymal stem cells were treated with TRIzol and incubated at room temperature for 10 minutes for cell lysis, and then chloroform was added thereto, followed by centrifugation. A supernatant obtained as a result of centrifugation was recovered, and total RNA was extracted. cDNA was synthesized from the total RNA using a reverse transcriptase (MMLV). Real-time PCR was performed using the synthesized cDNA as a template using a QuantiTect SYBR Green PCR kit to determine the expression levels of cardiomyocyte-specific marker genes (GATA4, Nkx2.5, and cTnI).
Changes in cardiomyocyte-specific gene expression by addition of apicidin or apicidin and lactic acid under glucose deprivation conditions were quantified by RT-PCR according to the method of Example 1-3.

[3] = test system: human bone marrow-derived mesenchymal stem cells; assay: Cell viability of mesenchymal stem cells under glucose deprivation (microscopy); format: cell-based; conditions: glucose-free medium, 3 μM apicidin (12 mM lactic acid in AC/Lac12)
Method: To confirm the status changes of mesenchymal stem cells in glucose deprivation conditions, an existing culture medium was replaced with a glucose-free medium, and then cells were observed after a certain period of time. At this time, cells treated with glucose or lactic acid (the case of cells incubated in a glucose-free medium, the case of cells incubated in a glucose-free medium containing lactic acid, the case of cells incubated in a glucose-free medium containing apicidin, or the case of cells incubated in a glucose-free medium containing lactic acid and apicidin) were observed, and the results are shown in FIG. 1.
First, mesenchymal stem cells were cultured in a 6-well plate filled with high glucose DMEM (4 mM L-glutamine, 4500 mg/L glucose, sodium pyruvate, 10% FBS, 100 U/ml penicillin, 100 μg/ml streptomycin) for one day. After culture, the high glucose DMEM was removed, the mesenchymal stem cells were washed twice with a sterile phosphate-saline buffer solution, and a glucose-free medium was added to the mesenchymal stem cells. At this time, the case of cells incubated in a glucose-free medium, the case of cells incubated in a glucose-free medium containing 3 μM apicidin, and the case of cells incubated in a glucose-free medium containing 3 μM apicidin and 12 mM lactic acid are denoted as Veh, AC, and AC/Lac12, respectively. At 4, 7, 20, and 27 hours after incubation, the morphology of the cells was observed under a microscope and images were obtained.
To evaluate the effect of a culture medium on differentiation of mesenchymal stem cells into cardiomyocytes, as described in Example 1-2, mesenchymal stem cells were incubated in a glucose-free medium, in a glucose-free medium containing apicidin, or a glucose-free medium containing apicidin and lactic acid, and cell viability was determined.

Which “expression of GATA4 and cTnI, cardiomyocyte-specific proteins” value (mesenchymal stem cells [1]) does the source give for apicidin here?
The value was “increase in the expression”.

What about the “expression levels of the marker genes (GATA4, Nkx2.5, cTnI)” value (mesenchymal stem cells [2]; 20 hours after the treatment) of the same substance?
Its value is “remarkably increased”.

And the “intracellular gene expression of three cardiomyocyte-specific markers (GATA4, Nkx2.5, and cTnI)” value (mesenchymal stem cells [2]; incubation 4 or 20 hours)?
Its value is “significantly increased”.

What about the cell death ([3]; 7 hours) of the same substance?
Its cell death is “cell death was not observed”.

And the cell death ([3]; 20 hours)?
The cell death was “partial cell death was observed”.

And the cell death ([3]; 27 hours)?
The cell death was “cell death was significantly observed”.
